We go through 13 molecules from the NIST ThermoML archive (doi:10.1016/j.jct.2016.12.036).

A short description of data set [1]: excess molar enthalpy (molar enthalpy of mixing); xn = mol fraction of the nth substance listed. Conditions: 298 K, 81.5 kPa, Liquid, Isoperibol calorimetry.
For data set [2] the following is noted: 298.15 K, 81.5 kPa, Liquid; for viscosity: Capillary tube (Ostwald / Ubbelohde) method; for mass density: Vibrating tube method.
Data set [3] can be described thus: refractive index (Na D-line) (dimensionless). The conditions noted are these: 298.15 K; 81.5 kPa; Liquid; Standard Abbe refractometry.

Each structure is given as a SMILES string. Numbers after ± are expanded uncertainties.

With `NCCN` [ethane-1,2-diamine] + CCC(C)O, the excess molar enthalpy in data set [1] (x1 = 0.0999) is -0.204 ± 0.00263 kcal/mol; in data set [1] (x1 = 0.1999), -0.369 ± 0.00454 kcal/mol; in data set [1] (x1 = 0.3009) it was -0.461 ± 0.00574 kcal/mol; in data set [1] (x1 = 0.4025), -0.473 ± 0.00598 kcal/mol; in data set [1] (x1 = 0.5055), -0.424 ± 0.00526 kcal/mol; in data set [1] (x1 = 0.6098), -0.338 ± 0.0043 kcal/mol. For the same molecule, the results for the excess molar enthalpy in data set [1] (x1 = 0.6982), in data set [1] (x1 = 0.7999) and in data set [1] (x1 = 0.9) were -0.237 ± 0.00311 kcal/mol, -0.143 ± 0.00189 kcal/mol and -0.0601 ± 0.000908 kcal/mol, respectively.

As for `NCCN` [ethane-1,2-diamine] + CCO, the excess molar enthalpy in data set [1] (x1 = 0.1003) is -0.354 ± 0.00454 kcal/mol; in data set [1] (x1 = 0.201) it was -0.6 ± 0.00741 kcal/mol; in data set [1] (x1 = 0.301), -0.72 ± 0.00884 kcal/mol; in data set [1] (x1 = 0.4042), -0.735 ± 0.00908 kcal/mol; in data set [1] (x1 = 0.4958) it was -0.688 ± 0.0086 kcal/mol; in data set [1] (x1 = 0.5987) it was -0.584 ± 0.00717 kcal/mol. Moreover, the figures for the excess molar enthalpy in data set [1] (x1 = 0.7006), in data set [1] (x1 = 0.8007) and in data set [1] (x1 = 0.8987) were -0.452 ± 0.00574 kcal/mol, -0.305 ± 0.00382 kcal/mol and -0.153 ± 0.00208 kcal/mol, respectively.

With `CCO` [ethanol], in data set [2], the viscosity is reported as 1.093 ± 0.023 mPa·s and the mass density was found to be 785.2 ± 1 kg/m3. The refractive index in data set [3] came out at 1.3588 ± 0.001.

Take `NCCN` [ethane-1,2-diamine] + CC(C)O: the excess molar enthalpy in data set [1] (x1 = 0.1001) was -0.209 ± 0.00263 kcal/mol; in data set [1] (x1 = 0.2), -0.372 ± 0.00478 kcal/mol; in data set [1] (x1 = 0.3007), -0.462 ± 0.00574 kcal/mol; in data set [1] (x1 = 0.4033) it was -0.478 ± 0.00598 kcal/mol; in data set [1] (x1 = 0.5073), -0.435 ± 0.0055 kcal/mol; in data set [1] (x1 = 0.5963), -0.363 ± 0.00454 kcal/mol. Besides, the figures for the excess molar enthalpy in data set [1] (x1 = 0.6988), in data set [1] (x1 = 0.7998) and in data set [1] (x1 = 0.8998) were -0.275 ± 0.00359 kcal/mol, -0.179 ± 0.00232 kcal/mol and -0.0844 ± 0.0012 kcal/mol, respectively.

On to `CC(C)O` [propan-2-ol], for which, in data set [2], the viscosity was found to be 2.067 ± 0.044 mPa·s and the mass density is listed as 781 ± 1 kg/m3. Further, in data set [3], the refractive index is 1.3745 ± 0.0011.

Consider `NCCN` [ethane-1,2-diamine], for which, in data set [2], the viscosity was 1.385 ± 0.029 mPa·s and the mass density was 892.8 ± 1 kg/m3. The refractive index in data set [3] came to 1.4537 ± 0.0011.

As for `CCCO` [propan-1-ol], in data set [2], the viscosity worked out at 1.943 ± 0.041 mPa·s and the mass density was 799.5 ± 1 kg/m3. In data set [3], the refractive index was found to be 1.3825 ± 0.001.

For the molecule `NCCN` [ethane-1,2-diamine] + CCCCO, the excess molar enthalpy in data set [1] (x1 = 0.1003) is -0.275 ± 0.00359 kcal/mol; in data set [1] (x1 = 0.2002), -0.486 ± 0.00598 kcal/mol; in data set [1] (x1 = 0.3011) it was -0.594 ± 0.00741 kcal/mol; in data set [1] (x1 = 0.4024) it was -0.6 ± 0.00741 kcal/mol; in data set [1] (x1 = 0.5053) it was -0.535 ± 0.00669 kcal/mol; in data set [1] (x1 = 0.6097), -0.428 ± 0.00526 kcal/mol. For the same molecule, the results for the excess molar enthalpy in data set [1] (x1 = 0.6983), in data set [1] (x1 = 0.8) and in data set [1] (x1 = 0.8999) were -0.312 ± 0.00406 kcal/mol, -0.192 ± 0.00239 kcal/mol and -0.0853 ± 0.00122 kcal/mol, respectively.

`CCCCO` [butan-1-ol]: in data set [2], the viscosity was 2.572 ± 0.055 mPa·s and the mass density stood at 806 ± 1 kg/m3. Moreover, the refractive index in data set [3] came to 1.3967 ± 0.001.

Take `CO` [methanol]: in data set [2], the viscosity is recorded as 0.573 ± 0.012 mPa·s and the mass density is 786.7 ± 1 kg/m3. Moreover, in data set [3], the refractive index came out at 1.3263 ± 0.0011.

Take `NCCN` [ethane-1,2-diamine] + CCCO: the excess molar enthalpy is -0.307 ± 0.00406 kcal/mol in data set [1] (x1 = 0.1); -0.529 ± 0.00669 kcal/mol in data set [1] (x1 = 0.199); -0.65 ± 0.00813 kcal/mol in data set [1] (x1 = 0.3043); -0.66 ± 0.00813 kcal/mol in data set [1] (x1 = 0.4066); -0.594 ± 0.00741 kcal/mol in data set [1] (x1 = 0.5106); -0.507 ± 0.00621 kcal/mol in data set [1] (x1 = 0.5944). The excess molar enthalpy is -0.387 ± 0.00478 kcal/mol in data set [1] (x1 = 0.697), -0.254 ± 0.00335 kcal/mol in data set [1] (x1 = 0.7983) and -0.121 ± 0.00167 kcal/mol in data set [1] (x1 = 0.8996).

As for `NCCN` [ethane-1,2-diamine] + CO, the excess molar enthalpy in data set [1] (x1 = 0.0995) was -0.486 ± 0.00621 kcal/mol; in data set [1] (x1 = 0.1972) it was -0.831 ± 0.0103 kcal/mol; in data set [1] (x1 = 0.295) it was -1.01 ± 0.0124 kcal/mol; in data set [1] (x1 = 0.3909), -1.05 ± 0.0129 kcal/mol; in data set [1] (x1 = 0.4934), -0.976 ± 0.012 kcal/mol; in data set [1] (x1 = 0.5948), -0.834 ± 0.0103 kcal/mol. The excess molar enthalpy in data set [1] (x1 = 0.6953) is -0.655 ± 0.00813 kcal/mol; in data set [1] (x1 = 0.7971) it was -0.449 ± 0.00574 kcal/mol; in data set [1] (x1 = 0.8994), -0.225 ± 0.00311 kcal/mol.

With `CCC(C)O` (stereo not given) [butan-2-ol], in data set [2], the viscosity is on record as 3.05 ± 0.067 mPa·s and the mass density was found to be 802.5 ± 1 kg/m3. Further, the refractive index in data set [3] is 1.3945 ± 0.0011.

The viscosity is the internal friction of a fluid under shear. A word on the mass density: it is mass per unit of volume. For orientation: refractive index means the speed of light in vacuum divided by its phase velocity in the sample.
